Columns and labels:
[1] = Oral bioavailability rat; type: ADME, organism-based; conditions: in vivo
[2] = Cmax in human at 400 mg administered with fat meal as single dose; type: ADME, organism-based; set-up: dose 400 mg; conditions: in vivo
[3] = Plasma concentration in human at 100 mg administered with fat meal every 12 hrs for 8 days measured on day 1 after 12 hrs of first dose; type: ADME, organism-based
[4] = AUC (0 to infinity) in human at 400 mg administered with fat meal as single dose; type: ADME, organism-based; set-up: dose 400 mg, time infinity; conditions: plasma
[5] = AUC (0 to infinity) in fasted human at 200 mg administered as single dose; type: ADME, organism-based; set-up: dose 200 mg, time infinity; conditions: plasma
Homo sapiens [6] = experiment: Toxicity in human assessed as headache at 100 mg administered every 12 hrs for 8 days; type: organism-based; conditions: in vivo
[7] = Terminal elimination half life in iv dosed monkey; type: ADME, organism-based, Macaca mulatta; conditions: rhesus monkey, in vivo, read-out: beta t1/2 (converted)
[8] = Cmax in human at 100 mg administered with fat meal every 12 hrs for 8 days measured on day 1; type: ADME, organism-based; set-up: dose 100 mg; conditions: in vivo
Homo sapiens [9] = species: Homo sapiens; experiment: Toxicity in human assessed as dizziness at 400 mg daily for 8 days; type: organism-based; conditions: in vivo, 192 h

Cn1c(=O)c(C(=O)NCCO)c(O)c2ncc(Cc3ccc(F)cc3)cc21 [GSK-364735]
bioavailability [1]: 6%
Cmax [2]: 840 ng/mL
concentration at 12 h [3]: 160 ng/mL
AUC(0-inf) [4]: 8500 ng·h/mL
AUC(0-inf) [5]: 5500 ng·h/mL
Activity (Homo sapiens [6]): 13%
half-life [7]: 1.5 h
Cmax [8]: 2500 ng/mL
Activity (Homo sapiens [9]): Non-toxic

Source: ChEMBL document CHEMBL1151440, “Safety and pharmacokinetics of GSK364735, a human immunodeficiency virus type 1 integrase inhibitor, following single and repeated administration in healthy adult subjects” (Antimicrob Agents Chemother, 2007)
